Active and inactive are the calls of the source. The rule behind the calls is not given here.
Tests used:
[1] = tested on: BGC-823; experiment: cells; type: functional, cell-based; conditions: Homo sapiens, BGC-823, 72 h
Description: Cytotoxicity against human BGC-823 cells assessed as inhibition of cell growth incubated for 72 hrs by MTT assay

[2] = tested on: HGC-27; experiment: Induction of apoptosis in human HGC-27 cells assessed as early apoptotic cells at 0.1 uM incubated for 48 hrs by annexin V FITC/propidium iodide staining based flow cytometry (reference value: 0.66 %); type: functional
[3] = tested on: HGC-27; experiment: Induction of apoptosis in human HGC-27 cells assessed as necrotic cells at 0.4 uM incubated for 48 hrs by annexin V FITC/propidium iodide staining based flow cytometry (reference value: 1.24 %); type: functional
[4] = tested on: HGC-27; experiment: Induction of apoptosis in human HGC-27 cells assessed as late apoptotic cells at 1.6 uM incubated for 48 hrs by annexin V FITC/propidium iodide staining based flow cytometry (reference value: 5.14 %); type: functional
[5] = tested on: MGC-803; experiment: Induction of cell cycle arrest in human MGC-803 cells assessed as reduction in accumulation of cells at G0/G1 phase at 5 to 20 uM incubated for 24 hrs by PI staining based flow cytometry analysis; type: functional; conditions: dose 5-20 µM
[6] = tested on: MGC-803; experiment: Induction of cell cycle arrest in human MGC-803 cells assessed as reduction in accumulation of cells at G2/M phase at 5 to 20 uM incubated for 24 hrs by PI staining based flow cytometry analysis; type: functional; conditions: dose 5-20 µM
[7] = Acute toxicity in Kunming mouse assessed as effect on liver pathology at 1000 mg/kg, po measured after 14 days; type: organism-based; conditions: in vivo, 336 h, time 14 day
[8] = Acute toxicity in Kunming mouse assessed as effect on kidney pathology at 1000 mg/kg, po measured after 14 days; type: organism-based; conditions: in vivo, 336 h, time 14 day
[9] = tested on: HGC-27; experiment: Antitumor activity against human HGC-27 cells xenografted in BALB/c mouse assessed as tumor growth inhibition at 75 mg/kg, po bid administered for 19 days; type: functional; conditions: HGC-27, 456 h, time 19 day, read-out: TGI
[10] = tested on: HGC-27; experiment: Antitumor activity against human HGC-27 cells xenografted in BALB/c mouse assessed as tumor growth inhibition at 150 mg/kg, po bid administered for 19 days; type: functional; conditions: HGC-27, 456 h, time 19 day, read-out: TGI
[11] = Toxicity in BALB/c mouse xenografted with human HGC-27 cells assessed as hematocrit level at 150 mg/kg, po bid for 19 days; type: organism-based; conditions: in vivo, 456 h, time 19 day
[12] = Toxicity in BALB/c mouse xenografted with human HGC-27 cells assessed as platelet distribution width at 150 mg/kg, po bid for 19 days; type: organism-based; conditions: in vivo, 456 h, time 19 day
[13] = Toxicity in BALB/c mouse xenografted with human HGC-27 cells assessed as granulocyte level at 75 mg/kg, po bid for 19 days; type: organism-based; conditions: in vivo, 456 h, time 19 day
[14] = Toxicity in BALB/c mouse xenografted with human HGC-27 cells assessed as hematocrit level at 75 mg/kg, po bid for 19 days; type: organism-based; conditions: in vivo, 456 h, time 19 day
[15] = Toxicity in BALB/c mouse xenografted with human HGC-27 cells assessed as mean corpuscular volume at 75 mg/kg, po bid for 19 days; type: organism-based; conditions: in vivo, 456 h, time 19 day
[16] = Toxicity in BALB/c mouse xenografted with human HGC-27 cells assessed as platelet level at 75 mg/kg, po bid for 19 days; type: organism-based; conditions: in vivo, 456 h, time 19 day
[17] = Toxicity in BALB/c mouse xenografted with human HGC-27 cells assessed as mean platelet volume at 75 mg/kg, po bid for 19 days; type: organism-based; conditions: in vivo, 456 h, time 19 day
[18] = Toxicity in BALB/c mouse xenografted with human HGC-27 cells assessed as platelet distribution width at 75 mg/kg, po bid for 19 days; type: organism-based; conditions: in vivo, 456 h, time 19 day
[19] = tested on: HGC-27; experiment: Induction of apoptosis in human HGC-27 cells assessed as upregulation in cytochrome c expression at 0.1 to 1.6 uM incubated for 48 hrs by Western blot analysis; type: functional, cell-based; conditions: dose 0.1-1.6 µM
[20] = tested on: HGC-27; experiment: Induction of apoptosis in human HGC-27 cells assessed as upregulation in cleaved caspase-3 expression at 0.1 to 1.6 uM incubated for 48 hrs by Western blot analysis; type: functional, cell-based; conditions: dose 0.1-1.6 µM
[21] = tested on: HGC-27; experiment: Induction of apoptosis in human HGC-27 cells assessed as upregulation in cleaved caspase-9 expression at 0.1 to 1.6 uM incubated for 48 hrs by Western blot analysis; type: functional, cell-based; conditions: dose 0.1-1.6 µM
[22] = tested on: HGC-27; experiment: In vivo induction of cell cycle arrest in human HGC-27 cells xenografted in BALB/c mouse assessed as increase in p27 expression at 75 to 150 mg/kg, po bid administered for 19 days and measured by immunohistochemical analysis; type: functional, organism-based; conditions: dose 75-150 mg/kg, time 19.0 day
[23] = tested on: HGC-27; experiment: Induction of cell cycle arrest in human HGC-27 cells assessed as upregulation of p21 expression at 0.1 to 1.6 uM incubated for 48 hrs by Western blot analysis; type: functional, cell-based; conditions: dose 0.1-1.6 µM
[24] = tested on: HGC-27; experiment: Induction of apoptosis in human HGC-27 cells assessed as viable cells at 0.5 uM incubated for 48 hrs by annexin V FITC/propidium iodide staining based flow cytometry (reference value: 93.0 %); type: functional; conditions: read-out: Activity
[25] = tested on: HGC-27; experiment: Induction of apoptosis in human HGC-27 cells assessed as necrotic cells at 0.5 uM incubated for 48 hrs by annexin V FITC/propidium iodide staining based flow cytometry (reference value: 1.24 %); type: functional
[26] = tested on: HGC-27; experiment: Induction of apoptosis in human HGC-27 cells assessed as viable cells at 2 uM incubated for 48 hrs by annexin V FITC/propidium iodide staining based flow cytometry (reference value: 93.0 %); type: functional; conditions: read-out: Activity
[27] = tested on: HGC-27; experiment: Induction of apoptosis in human HGC-27 cells assessed as early apoptotic cells at 2 uM incubated for 48 hrs by annexin V FITC/propidium iodide staining based flow cytometry (reference value: 0.66 %); type: functional
[28] = tested on: MGC-803; experiment: Induction of apoptosis in human MGC-803 cells assessed as viable cells at 2.5 uM incubated for 48 hrs by annexin V FITC/propidium iodide staining based flow cytometry (reference value: 94.4 %); type: functional; conditions: read-out: Activity
[29] = tested on: MGC-803; experiment: Induction of apoptosis in human MGC-803 cells assessed as early apoptotic cells at 2.5 uM incubated for 48 hrs by annexin V FITC/propidium iodide staining based flow cytometry (reference value: 0.42 %); type: functional
[30] = tested on: MGC-803; experiment: Induction of apoptosis in human MGC-803 cells assessed as late apoptotic cells at 2.5 uM incubated for 48 hrs by annexin V FITC/propidium iodide staining based flow cytometry (reference value: 4.07 %); type: functional
[31] = tested on: HGC-27; experiment: Induction of cell cycle arrest in human HGC-27 cells assessed as reduction in accumulation of cells at G0/G1 phase at 0.5 to 8 uM incubated for 24 hrs by PI staining based flow cytometry analysis; type: functional; conditions: dose 0.5-8 µM
[32] = tested on: MGC-803; experiment: Induction of cell cycle arrest in human MGC-803 cells assessed as reduction in accumulation of cells at S phase at 2.5 to 10 uM incubated for 24 hrs by PI staining based flow cytometry analysis; type: functional; conditions: dose 2.5-10 µM
[33] = tested on: HGC-27; experiment: Induction of apoptosis in human HGC-27 cells assessed as upregulation in cytochrome c expression at 0.5 to 8 uM incubated for 48 hrs by Western blot analysis; type: functional, cell-based; conditions: dose 0.5-8 µM
[34] = tested on: HGC-27; experiment: Induction of apoptosis in human HGC-27 cells assessed as upregulation in cleaved caspase-3 expression at 0.5 to 8 uM incubated for 48 hrs by Western blot analysis; type: functional, cell-based; conditions: dose 0.5-8 µM
[35] = tested on: HGC-27; experiment: Induction of cell cycle arrest in human HGC-27 cells assessed as upregulation of p21 expression at 0.5 to 8 uM incubated for 48 hrs by Western blot analysis; type: functional, cell-based; conditions: dose 0.5-8 µM

SMILES: O=C(NCc1ccc(NC(=O)c2cc(F)ccc2N2CCCC2)cc1)OCc1cccnc1
- IC50 [1]: 14.8 µM
- Activity [2]: 1.43%
- Activity [3]: 5.43%
- Activity [4]: 69.4%
- Activity [5]: Active
- Activity [6]: Active
- Activity [7]: Non-Toxic
- Activity [8]: Non-Toxic
- inhibition in vivo at 75 mg/kg [9]: 52.4%
- inhibition in vivo at 150 mg/kg [10]: 68.9%
- Activity [11]: 55.38%
- Activity [12]: 17.45
- Activity [13]: 91.4%
- Activity [14]: 58.3%
- Activity [15]: 49.83 fL
- Activity [16]: 1057.33 10^9/L
- Activity [17]: 5.6 fL
- Activity [18]: 16.93
- Activity [19]: Active
- Activity [20]: Active
- Activity [21]: Active
- Activity [22]: Active
- Activity [23]: Active

SMILES: O=C(NCc1ccc(NC(=O)c2ccccc2N2CCCC2)cc1)OCc1cccnc1
- viability at 0.5 µM [24]: 79.1%
- Activity [25]: 2.55%
- viability at 2 µM [26]: 30.4%
- Activity [27]: 1.59%
- viability at 2.5 µM [28]: 80.3%
- Activity [29]: 0.85%
- Activity [30]: 14.6%
- Activity [31]: Active
- Activity [32]: Active
- Activity [33]: Active
- Activity [34]: Active
- Activity [35]: Active
